Positions of bridges follow the written chain, without caps; N, C: chain ends. Non-standard residues stand in square brackets, D forms with d. Residues, ends and D or L forms follow the SMILES beside them. *: point of attachment. FITC = O=C1OC2(c3ccc(O)cc3Oc3cc(O)ccc32)c2ccc(NC(=S)*)cc21; R8 = C=CCCCCCC[C@@](C)(N)C(=O)O; S5 = C=CCCC[C@](C)(N)C(=O)O; AEEA = NCCOCCOCC(=O)O
What was measured:
Assay type in all cases: binding
ds miR-21 = assay: ITC with ds miR-21
Method: (§1) Isothermal titration calorimetry (ITC) was conducted using a MicroCal VP-ITC (Malvern Panalytical). Before measurement, oligonucleotide and peptide samples were dissolved in PBS and degassed using a ThermoVac (Malvern Panalytical) and heated to 30°C. N-terminally acetylated peptides (c = 3–12 μM) were then transferred into the sample cell and oligonucleotides (c = 12–72 μM) were transferred into the syringe. 35 Injections per measurement were performed at 30°C (8 μl injection volume, 2 s injection time, 180 s spacing, high feedback mode) with an initial delay of 60 s and a stirring speed of 307 rpm. Measurements were performed in triplicate. Using the MicroCal LLC ITC software (Origin; OriginLab Corporation), the heat associated with each injection was calculated by integrating the area under the curve in microcalories per second [μca/s] versus time [min] for each injection and then normalized to concentration. A ‘single set of identical binding sites’ model was used to fit the binding curves from which thermodynamic binding parameters (ΔG, ΔH, ΔS, N and Kd) were obtained.

pre-miR-21 [1] = assay: ITC with pre-miR-21
Method: as §1

pre-miR-21 [2] = assay: EMSA with pre-miR-21; details: fluorescein-labeled peptide 6 μM, pre-miR-21 3 μM
Method: (§2) Electrophoretic mobility shift assays (EMSAs) were performed using a Bio-Rad Mini-Protean gel system paired with a direct current (DC) power source (PowerPac™ HC, Bio-Rad). Typically, 6 μl solutions containing ds RNA (c = 3 μM) and fluorescein-labeled peptide (c = 6 μM) were incubated in binding buffer (10 mM Tris (pH 8.0), 0.5 mM EDTA, 12.5% glycerol and 150 mM KCl) at 4°C for 1 h. After incubation, bound RNA was resolved from peptide-free RNA using 10% non-denaturing polyacrylamide gels at 120 V in running buffer (25 mM Tris (pH 8.0), 200 mM glycine, 20 mM NaCl) at 4°C for 1 h. Visualization of fluorescent gel-bound species was conducted using a Typhoon Trio + fluorescence scanner (GE Healthcare Life Sciences). For nucleic acid visualization, gels were stained using 2 μl of SYBR™ gold nucleic acid gel dye (Molecular Probes) in 20 ml of TAE buffer (40 mM Tris, 1 mM EDTA, 20 mM acetic acid) for 45 min at RT before being visualized using a FluorChem™ gel documentation system (Alpha Innotech). To assess B3 binding to different ds RNA sequences (Supplementary Figure S20), 6 μl solutions containing hairpin RNA (c = 1 μM) and fluorescein-labeled B3 (c = 2 μM) were incubated in binding buffer (TAE and 10% glycerol) at RT for 1 h, and then resolved using 15% non-denaturing polyacrylamide gels (acrylamide/bis-acrylamide (19:1) in TAE) at 150 V in running buffer (TAE) at 4°C for 1.5 h. […]

ds RNA hairpins HP 1–5 = assay: EMSA with ds RNA hairpins HP 1-5; details: fluorescein-labeled B3 2 μM, hairpin RNA 1 μM, TAE and 10% glycerol, RT 1 h
Method: as §2

Row | SMILES | Kd (ds miR-21) [nM] | Kd (pre-miR-21 [1]) [nM] | binding to pre-miR-21 in EMSA (pre-miR-21 [2]) | binding to ds RNA hairpins in EMSA (ds RNA hairpins HP 1–5)
1 | CC(C)C[C@H](NC(=O)[C@]1(C)CCCC=CCCC[C@](C)(NC(=O)[C@H](CCC(=O)O)NC(=O)[C@H](CO)NC(=O)[C@@H]2CCCN2C(=O)[C@H](CO)NC(=O)[C@H](CCCCN)NC(=O)[C@H](Cc2c[nH]cn2)NC(=O)CNC(=O)[C@H](CCCNC(=N)N)NC(=O)[C@]2(C)CCCC=CCCC[C@](C)(NC(=O)[C@H](CCCCN)NC(=O)[C@H](Cc3c[nH]cn3)NC(=O)[C@H](CCCNC(=N)N)NC(=O)[C@H](CCCCN)NC(=O)[C@H](CCCNC(=N)N)NC(=O)[C@H](CCC(N)=O)NC(=O)[C@H](C)NC(=O)[C@H](CCC(N)=O)NC(=O)[C@H](CCCCN)NC(=O)[C@H](CCCCN)NC(=O)COCCOCCNC(=S)Nc3ccc4c(c3)C(=O)OC43c4ccc(O)cc4Oc4cc(O)ccc43)C(=O)N[C@@H](CC(N)=O)C(=O)N[C@@H](CCCNC(=N)N)C(=O)N[C@@H](CCCCN)C(=O)N2)C(=O)N[C@@H](CCCNC(=N)N)C(=O)N[C@@H](CCCNC(=N)N)C(=O)N[C@@H](CO)C(=O)N1)C(=O)N[C@@H](Cc1c[nH]c2ccccc12)C(=O)N[C@@H](Cc1c[nH]cn1)C(=O)N[C@@H](C)C(=O)N[C@@H](CCCNC(=N)N)C(N)=O [B3] ({FITC-AEEA}-KKQAQRKRHK[S5]NRK[S5]RGHKSPSE[S5]RRS[S5]LWHAR-NH2; staple 11-15, 24-28) | 18 ± 2 | 75 ± 8 | indicated pre–miRNA-binding | showed binding to each hairpin
2 | CC(C)C[C@@H]1NC(=O)[C@@](C)(NC(=O)[C@H](CO)NC(=O)[C@H](CCCNC(=N)N)NC(=O)[C@H](CCCNC(=N)N)NC(=O)[C@H](CCC(N)=O)NC(=O)[C@H](CCC(=O)O)NC(=O)[C@H](CO)NC(=O)[C@@H]2CCCN2C(=O)[C@H](CO)NC(=O)[C@H](CCCCN)NC(=O)[C@H](Cc2c[nH]cn2)NC(=O)CNC(=O)[C@H](CCCNC(=N)N)NC(=O)[C@H](CCC(=O)O)NC(=O)[C@H](CCCCN)NC(=O)[C@H](CCCNC(=N)N)NC(=O)[C@H](CC(N)=O)NC(=O)[C@]2(C)CCCC=CCCCCCC[C@@](C)(NC(=O)[C@H](CCC(N)=O)NC(=O)[C@H](CCCCN)NC(=O)[C@H](CCCCN)NC(=O)COCCOCCNC(=S)Nc3ccc4c(c3)C(=O)OC43c4ccc(O)cc4Oc4cc(O)ccc43)C(=O)N[C@@H](CCC(N)=O)C(=O)N[C@@H](CCCNC(=N)N)C(=O)N[C@@H](CCCCN)C(=O)N[C@@H](CCCNC(=N)N)C(=O)N[C@@H](Cc3c[nH]cn3)C(=O)N[C@@H](CCCCN)C(=O)N2)CCCC=CCCC[C@@](C)(C(=O)N[C@@H](CCCNC(=N)N)C(N)=O)NC(=O)[C@H](Cc2c[nH]cn2)NC(=O)[C@H](Cc2c[nH]c3ccccc23)NC1=O [C1] ({FITC-AEEA}-KKQ[R8]QRKRHK[S5]NRKERGHKSPSEQRRS[S5]LWH[S5]R-NH2; staple 4-11, 28-32) |  |  | indicated pre–miRNA-binding | 

From PMC8682738, “Constrained peptides mimic a viral suppressor of RNA silencing” (Nucleic Acids Research, 2021)
